Assay results from PubChem BioAssay (NCI).
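1) Cells in 96-well plates. 2) Compound, 48 h, 5 concentrations. 3) Linear interpolation between surrounding doses. 4) Unreached endpoint = highest concentration. At the GI50, growth is halved. The concentration for full growth arrest is given as TGI.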

Assays:
Test in all cases: NCI anticancer screen, dose series, 48 h
786-0 renal = test system: 786-0 renal
OVCAR-5 ovarian = test system: OVCAR-5 ovarian
MOLT-4 leukemia = test system: MOLT-4 leukemia
OVCAR-3 ovarian = test system: OVCAR-3 ovarian
MALME-3M melanoma = test system: MALME-3M melanoma
HL-60(TB) leukemia = test system: HL-60(TB) leukemia
KM20L2 colon = test system: KM20L2 colon
UACC-257 melanoma = test system: UACC-257 melanoma
K-562 leukemia = test system: K-562 leukemia
LXFL 529 NSCLC = test system: LXFL 529 NSCLC

O=C(Cc1ccccc1[N+](=O)[O-])C(CO)c1ccccc1[N+](=O)[O-] (centres undefined)
TGI (786-0 renal): > 100 µM
TGI (OVCAR-5 ovarian): > 100 µM
TGI (MOLT-4 leukemia): > 100 µM
TGI (OVCAR-3 ovarian): > 100 µM
TGI (MALME-3M melanoma): > 100 µM
TGI (HL-60(TB) leukemia): > 100 µM
TGI (KM20L2 colon): > 100 µM
TGI (UACC-257 melanoma): > 100 µM
TGI (K-562 leukemia): > 100 µM
TGI (LXFL 529 NSCLC): > 100 µM

COC(=O)C1CSC(c2csc(CCN)n2)=N1 (centres undefined)
TGI (786-0 renal): > 100 µM
TGI (OVCAR-5 ovarian): > 100 µM
TGI (MOLT-4 leukemia): > 100 µM
TGI (OVCAR-3 ovarian): > 100 µM
TGI (MALME-3M melanoma): > 100 µM
TGI (HL-60(TB) leukemia): > 100 µM
TGI (KM20L2 colon): > 100 µM
TGI (UACC-257 melanoma): > 100 µM
TGI (K-562 leukemia): > 100 µM
TGI (LXFL 529 NSCLC): > 100 µM

O=C(O)CN(c1ccccc1)S(=O)(=O)c1cccc([N+](=O)[O-])c1
TGI (786-0 renal): > 100 µM
TGI (OVCAR-5 ovarian): > 100 µM
TGI (MOLT-4 leukemia): > 100 µM
TGI (OVCAR-3 ovarian): > 100 µM
TGI (MALME-3M melanoma): > 100 µM
TGI (HL-60(TB) leukemia): > 100 µM
TGI (KM20L2 colon): > 100 µM
TGI (UACC-257 melanoma): > 100 µM
TGI (K-562 leukemia): > 100 µM
TGI (LXFL 529 NSCLC): > 100 µM

O=C1C(=c2ccc(=C3C(=O)c4ccc([N+](=O)[O-])cc4[N+]3=O)cc2)N([O-])c2cc([N+](=O)[O-])ccc21
TGI (786-0 renal): > 100 µM
GI50 (OVCAR-5 ovarian): > 100 µM
TGI (OVCAR-5 ovarian): > 100 µM
GI50 (MOLT-4 leukemia): > 100 µM
TGI (MOLT-4 leukemia): > 100 µM
GI50 (OVCAR-3 ovarian): > 100 µM
TGI (OVCAR-3 ovarian): > 100 µM
GI50 (MALME-3M melanoma): > 100 µM
TGI (MALME-3M melanoma): > 100 µM
GI50 (HL-60(TB) leukemia): > 100 µM
TGI (HL-60(TB) leukemia): > 100 µM
GI50 (KM20L2 colon): > 100 µM
TGI (KM20L2 colon): > 100 µM
GI50 (UACC-257 melanoma): > 100 µM
TGI (UACC-257 melanoma): > 100 µM
GI50 (K-562 leukemia): > 100 µM
TGI (K-562 leukemia): > 100 µM
GI50 (LXFL 529 NSCLC): > 100 µM
TGI (LXFL 529 NSCLC): > 100 µM

COC(=O)[C@H]1COC(=S)N1C(=O)[C@@H](C)[C@H](O)C(C)C
TGI (786-0 renal): > 100 µM
TGI (OVCAR-5 ovarian): > 100 µM
TGI (MOLT-4 leukemia): > 100 µM
TGI (OVCAR-3 ovarian): > 100 µM
TGI (MALME-3M melanoma): > 100 µM
TGI (HL-60(TB) leukemia): > 100 µM
TGI (KM20L2 colon): > 100 µM
TGI (UACC-257 melanoma): > 100 µM
TGI (K-562 leukemia): > 100 µM
TGI (LXFL 529 NSCLC): > 100 µM

O=C(COc1ccccc1Cl)N1N=C(c2ccccc2)CC1(O)c1ccccc1 (centres undefined)
TGI (786-0 renal): 31 µM
TGI (OVCAR-5 ovarian): 33.5 µM
TGI (MOLT-4 leukemia): 58.8 µM
TGI (OVCAR-3 ovarian): 33.6 µM
TGI (MALME-3M melanoma): 31.7 µM
TGI (HL-60(TB) leukemia): 30.6 µM
TGI (KM20L2 colon): 29.6 µM
TGI (UACC-257 melanoma): 45.2 µM
TGI (K-562 leukemia): 54.9 µM
TGI (LXFL 529 NSCLC): > 100 µM
